From PMC7035293, “Structural ensemble of a glutamate transporter homologue in lipid nanodisc environment” (Nature Communications, 2020) come the findings set out here.

The term stoichiometry N denotes a count of units in the complex or per binding partner.

For test [1], the target named is T1, GltTk (Thermococcus kodakarensis, UniProt Q5JID0).
T1 construct: gene TK0986; C-terminal His8 tag, expressed in E. coli MC1061 (pBAD24-derived plasmid), purified apo, reconstituted in MSP2N2 lipid nanodiscs; homotrimer
T1 sequence (Q5JID0 entry or part of it): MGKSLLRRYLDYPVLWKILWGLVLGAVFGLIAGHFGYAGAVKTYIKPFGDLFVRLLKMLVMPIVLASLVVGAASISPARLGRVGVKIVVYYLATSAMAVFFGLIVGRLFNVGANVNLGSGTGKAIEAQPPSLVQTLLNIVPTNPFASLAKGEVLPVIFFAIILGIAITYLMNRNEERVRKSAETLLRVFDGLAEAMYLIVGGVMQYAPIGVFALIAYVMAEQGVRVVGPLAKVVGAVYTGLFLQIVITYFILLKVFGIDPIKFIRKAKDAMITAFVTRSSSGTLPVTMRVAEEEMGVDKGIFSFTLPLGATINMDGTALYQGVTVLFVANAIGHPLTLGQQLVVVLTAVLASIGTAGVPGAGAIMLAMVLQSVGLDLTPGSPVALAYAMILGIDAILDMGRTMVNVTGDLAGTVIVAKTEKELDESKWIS
Nature of the test: cryo-EM structure of the complex in lipid nanodiscs. As to conditions: 300 mM Na+, aspartate binding site.

Test [2] addresses glutamate transporter homologue GltTk from Thermococcus kodakarensis (Thermococcus kodakarensis) (UniProt Q5JID0). As to the kind of experiment: cryo-EM structure; GltTk in MSP2N2 nanodiscs (E. coli polar lipids:egg PC 3:1 w/w), 20 mM Tris-HCl pH 8.0, 300 mM NaCl; five structures: Na+-only, L-aspartate unsaturated (two structures), L-aspartate saturated, 120 uM DL-TBOA; 200 keV Talos Arctica.

As for `NC(C(=O)O)C(OCc1ccccc1)C(=O)O` (racemic) [DL-TBOA], the “cryo-EM structure of the complex in lipid nanodiscs” value in test [1] (pH 8.0, 120 uM DL-TBOA with 4.5 uM nanodiscs, competitive, outward-open state, two of three protomers occupied) is on record as “The fully-outward protomers have wide open HP2 gates”.

The molecule “glutamate transporter homologue GltTk from Thermococcus kodakarensis (from UniProt Q5JID0 1-430) (natural protein)” showed a stoichiometry N in test [2] of 3.

Take `N[C@@H](CC(=O)O)C(=O)O` [L-aspartate]: the “cryo-EM structure of the complex in lipid nanodiscs” value in test [1] (pH 8.0, 50 uM L-aspartate with 5.6 uM nanodiscs, intermediate-outward occluded state, also sub-saturating structures 6XWO and 6XWP) is reported as “density for the amino acid substrate in the binding site is observed”.
